These results are taken from patent US8071797B2 (priority 2008, dated 2011).

The test system of series [1] is HCV. Particulars: monotherapy; cited from earlier work.
In series [2] the target is T1, HCV polymerase (NS5B570n-Con1) (Hepatitis C virus genotype 1b, UniProt Q9WMX2).
T1 construct: contains a 21 amino acid deletion at the C-terminus relative to the full-length HCV polymerase; 6-histidine (N); made in house; host or cells: E. coli BL21 (DE) pLysS
The experiment in a line: HCV NS5B RNA polymerase activity assay. Format: biochemical, HCV Con1 strain. An outline of the steps:
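His6-tagged NS5B Con1 (genotype 1b, 21-aa C-terminal deletion; 20 nM) copied 20 nM cIRES RNA template with [3H]UTP plus 1 μM ATP, CTP and GTP in pH 8.0 Tris buffer with 4 mM MgCl2 and DTT, 2 h at 30 °C. TCA-precipitated RNA counted by scintillation. IC50 from four-parameter fit versus no-compound control, no-enzyme background subtracted.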

Series [3] has as its system HCV replicon cells (2209-23), genotype 1b replicon in Huh7 cells. The series can be described thus: HCV replicon assay (Renilla luciferase reporter). Format: cell-based, HCV genotype 1b. Particulars: Hepatitis C virus, Huh-7, 72 h; cell line 2209-23, three days incubation. For orientation: Replicon systems follow genome replication, usually without infectious particles.

Series [4] is described as follows: in vitro. Particulars: human.
Where [5] appears, read: IC50 NS5B polymerase assay, Table I.
Setting [6] is: Polymerase Assay IC50, Table II.

With `NC(=O)c1ncn([C@@H]2O[C@H](CO)[C@@H](O)[C@H]2O)n1` [ribavirin, 1-((2R,3R,4S,5R)-3,4-Dihydroxy-5-hydroxymethyl-tetrahydro-furan-2-yl)-1H-[1,2,4]triazole-3-carboxylic acid amide], the “patients in whom serum amino transferase levels are reduced to normal” value in series [1] is recorded as 40%.
`CNC(=O)c1c(-c2ccc(Oc3ccc(F)cc3)cc2)oc2cc(C(C)=O)c(OC)cc12` [Compound I-104] came in with a melting point of 207 to 209 °C. In series [2] (setting [5]), this compound gave an IC50 of 139 nM.
The like results for `CNC(=O)c1c(-c2ccc(Oc3ccc(F)cc3)cc2)oc2cc(N(CCO)S(C)(=O)=O)c(C3CC3)cc12` [Compound I-32, 5-Cyclopropyl-2-[4-(4-fluoro-phenoxy)-phenyl]-6-[(2-hydroxy-ethyl)-methanesulfonyl-amino]-benzofuran-3-carboxylic acid methylamide] were, in that order, 110 to 115 °C and 60 nM.
As for `CNC(=O)c1c(-c2ccc(Oc3ccc(F)cc3)cc2)oc2cc(N(CCCNS(C)(=O)=O)S(C)(=O)=O)c(C3CC3)cc12` [Compound I-116], in series [3], the IC50 turned out to be 4 nM.
As for `CNC(=O)c1c(-c2ccc(Oc3ccc(F)cc3)cc2)oc2cc(N(CCS(C)(=O)=O)S(C)(=O)=O)c(C3CC3)cc12` [Compound I-83, 5-cyclopropyl-2-[4-(4-fluoro-phenoxy)-phenyl]-6-[methanesulfonyl-(2-methanesulfonyl-ethyl)-amino]-benzofuran-3-carboxylic acid methylamide], the melting point was 158 to 160 °C. It took 29 nM to reach half-maximal inhibition in series [2] (setting [5]) (IC50).
The like results for `CNC(=O)c1c(-c2ccc(Oc3ccccc3)cc2)oc2cc(N3CCCCS3(=O)=O)c(C3CC3)cc12` [Compound I-93] were, in that order, 197 to 199 °C and 71 nM.
In turn, `CNC(=O)c1c(-c2ccc(Nc3ccccn3)cc2)oc2cc(N(CCO)S(C)(=O)=O)c(OC)cc12` [Compound I-123] came in with a melting point of 241 to 243 °C. The compound further showed an IC50 in series [2] (setting [5]) of 156 nM.
`CNC(=O)c1c(-c2ccc(Nc3ccc(C(C)C)cc3)cc2)oc2cc(N(CCO)S(C)(=O)=O)c(OC)cc12` [Compound I-6] returned a melting point of 223.9 to 234.5 °C. This compound also returned an IC50 in series [2] (setting [5]) of 544 nM.
Compound `CNC(=O)c1c(-c2ccc(Oc3ccc(F)cc3)cc2)oc2cc(N(CCO)S(C)(=O)=O)ccc12` [Compound I-64, 2-[4-(4-Fluoro-phenoxy)-phenyl]-6-[(2-hydroxy-ethyl)-methanesulfonyl-amino]-benzofuran-3-carboxylic acid methylamide] yielded a melting point of 214.6 to 215.7 °C. In series [2] (setting [5]), this compound displayed an IC50 of 415 nM.
The like results for `CNC(=O)c1c(-c2ccc(Oc3ccccc3)cc2)oc2cc(N3CCNS3(=O)=O)c(C3CC3)cc12` [Compound I-102, 5-Cyclopropyl-6-(1,1-dioxo-1λ^6-[1,2,5]thiadiazolidin-2-yl)-2-(4-phenoxy-phenyl)-benzofuran-3-carboxylic acid methylamide] were, in that order, 183.4 to 184.5 °C and 20 nM.
`CNC(=O)c1c(-c2ccc(Oc3ccc(F)cc3)cc2)oc2cc(N(CCN)S(C)(=O)=O)c(C3CC3)cc12.Cl` [Compound I-74] displayed a melting point of 223 to 224 °C. In series [2] (setting [5]), this compound yielded an IC50 of 83 nM.
`CNC(=O)c1c(-c2ccc(Oc3ccccc3)cc2)oc2cc(N3CCOCC3)c(C3CC3)cc12` [Compound I-77] returned a melting point of 223.4 to 223.9 °C. The compound also returned an IC50 in series [2] (setting [5]) of 672 nM.
Regarding `CNC(=O)c1c(-c2ccc(Oc3ccc(F)cc3)cc2)oc2cc(N(CC(N)CO)S(C)(=O)=O)c(C3CC3)cc12.Cl` (stereo not drawn) [Compound I-107], the melting point lay in the range of 178 to 180 °C. This compound came in with an IC50 in series [2] (setting [5]) of 19 nM.
In turn, `CNC(=O)c1c(-c2ccc(Oc3ccc(F)cc3)cc2)oc2cc(NS(C)(=O)=O)c(C3CC3)cc12` [Compound I-40] displayed a melting point of 169 to 170 °C. The compound further showed an IC50 in series [2] (setting [5]) of 98 nM.
In turn, `CNC(=O)c1c(-c2ccc(Oc3ccccc3)cc2)oc2cc(N3CCCS3(=O)=O)c(C3CC3)cc12` [Compound I-82, 5-Cyclopropyl-6-(1,1-dioxo-1λ^6-isothiazolidin-2-yl)-2-(4-phenoxy-phenyl)-benzofuran-3-carboxylic acid methylamide] returned a melting point of 174 to 176 °C. The compound also had an IC50 in series [2] (setting [5]) of 66 nM.
`CNC(=O)c1c(-c2ccc(Oc3ccccc3)cc2)oc2cc(N(CCO)S(C)(=O)=O)c(C3CC3)cc12` [Compound I-33] came in with a melting point of 110 to 115 °C. In addition, the IC50 in series [2] (setting [5]) was determined as 21 nM.
`CNC(=O)c1c(-c2ccc(Nc3ccccc3)cc2)oc2cc(N(CCO)S(C)(=O)=O)c(OC)cc12` [Compound I-1, 6-[(2-hydroxy-ethyl)-methanesulfonyl-amino]-5-methoxy-2-(4-phenylamino-phenyl)-benzofuran-3-carboxylic acid methylamide] came in with a melting point of 144.6 to 146.9 °C. This compound also showed an IC50 in series [3] of 43 nM. In series [2] (setting [5]), this compound had an IC50 of 43 nM. Besides, in series [2] (setting [6]), the IC50 was determined as 5 nM. The same compound returned a CC50 in series [4] of 30600 nM.
For `CNC(=O)c1c(-c2ccc(Oc3ccc(F)cc3)cc2)oc2cc(N(CCCN)S(C)(=O)=O)c(C3CC3)cc12` [Compound I-69], the results for the IC50 in series [3], in series [2] (setting [5]) and in series [2] (setting [6]) were 10 nM, 18 nM and 18 nM, respectively. In addition, the CC50 in series [4] stood at 4600 nM.

The melting point is the temperature of the solid-liquid transition. By IC50 is commonly meant the point on the concentration scale where inhibition reaches its midpoint. Read a low IC50 as greater potency in that assay.
